From ChEMBL document CHEMBL1135019, “New generation dopaminergic agents. Part 8: heterocyclic bioisosteres that exploit the 7-OH-2-(aminomethyl)chroman D(2) template” (Bioorg Med Chem Lett, 2002)

What was measured:
[1] = target: D(3) dopamine receptor (Homo sapiens, UniProt P35462); assay: biochemical
Description: Affinity for the Human Dopamine receptor D3 was determined using membranes from CHO cells labeled with [3H]spiperone

[2] = target: D(2) dopamine receptor (Homo sapiens, UniProt P14416); assay: biochemical
Description: Affinity for the Dopamine receptor D2S was determined using membranes from CHO cells labeled with [3H]spiperone

[3] = target: T1, D(4) dopamine receptor (Homo sapiens, UniProt P21917); assay: biochemical
T1 sequence (P21917 whole entry): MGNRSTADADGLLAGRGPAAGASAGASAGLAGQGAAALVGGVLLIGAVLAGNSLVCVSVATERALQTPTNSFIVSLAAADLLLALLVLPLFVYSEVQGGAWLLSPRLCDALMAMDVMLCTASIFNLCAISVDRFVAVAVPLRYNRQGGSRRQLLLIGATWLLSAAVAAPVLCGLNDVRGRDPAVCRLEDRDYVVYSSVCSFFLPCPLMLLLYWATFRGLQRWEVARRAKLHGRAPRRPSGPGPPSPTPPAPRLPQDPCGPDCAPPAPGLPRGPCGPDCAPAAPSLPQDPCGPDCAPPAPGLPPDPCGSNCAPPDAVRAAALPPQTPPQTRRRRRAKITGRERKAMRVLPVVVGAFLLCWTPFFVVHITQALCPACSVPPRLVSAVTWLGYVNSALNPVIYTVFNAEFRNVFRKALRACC
Description: Affinity for the Human Dopamine receptor D4 was determined using membranes from CHO cells labeled with [3H]spiperone

[4] = target: D(2) dopamine receptor (Rattus norvegicus) (UniProt P61169); assay: Ratio D2 partial agonist, Ki(D2 Low)/Ki(D2 High), to compare a compounds estimated intrinsic activity.
[5] = target: T2, D(2) dopamine receptor (Rattus norvegicus, UniProt P61169)
Description: Affinity of compound for D2 receptor in rat striatal membrane determined for agonist state (high affinity state, D2 High) [3H]quinpirole as radioligand (in the absence of GTP and sodium)

[6] = target: T2, D(2) dopamine receptor; remark: listed apart in the source
Description: Affinity of compound for Dopamine receptor D2 in rat striatal membrane determined for antagonist state (low affinity state, D2 Low) with [3H]spiperone (using ketanserin to exclude 5-HT2 receptor binding) in the presence of GTP and sodium

Chain of D(2) dopamine receptor (Homo sapiens, UniProt P14416) (P14416 whole entry): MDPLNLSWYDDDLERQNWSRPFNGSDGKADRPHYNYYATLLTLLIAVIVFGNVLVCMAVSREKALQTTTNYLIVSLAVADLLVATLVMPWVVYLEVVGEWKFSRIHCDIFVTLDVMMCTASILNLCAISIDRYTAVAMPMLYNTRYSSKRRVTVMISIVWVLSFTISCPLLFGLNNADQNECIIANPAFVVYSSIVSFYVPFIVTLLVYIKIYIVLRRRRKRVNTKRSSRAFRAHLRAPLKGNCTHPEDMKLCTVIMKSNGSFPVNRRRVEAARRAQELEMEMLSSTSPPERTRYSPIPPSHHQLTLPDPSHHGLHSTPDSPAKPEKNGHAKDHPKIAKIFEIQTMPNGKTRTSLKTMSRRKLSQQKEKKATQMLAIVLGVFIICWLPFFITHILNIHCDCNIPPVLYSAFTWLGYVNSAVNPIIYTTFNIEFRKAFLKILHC
Chain of D(3) dopamine receptor (P35462 whole entry): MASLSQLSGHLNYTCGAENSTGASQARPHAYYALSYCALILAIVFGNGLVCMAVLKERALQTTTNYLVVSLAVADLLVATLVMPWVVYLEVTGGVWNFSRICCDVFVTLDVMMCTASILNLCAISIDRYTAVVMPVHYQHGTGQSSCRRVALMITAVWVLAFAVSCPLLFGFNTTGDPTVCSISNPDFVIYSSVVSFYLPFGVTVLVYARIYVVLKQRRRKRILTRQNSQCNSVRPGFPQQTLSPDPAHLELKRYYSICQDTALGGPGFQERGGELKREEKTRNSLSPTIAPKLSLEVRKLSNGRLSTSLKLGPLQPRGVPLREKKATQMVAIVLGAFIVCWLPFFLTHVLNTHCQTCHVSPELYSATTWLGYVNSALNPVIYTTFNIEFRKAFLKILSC
Chain of D(2) dopamine receptor (Rattus norvegicus) (P61169 whole entry, looked up): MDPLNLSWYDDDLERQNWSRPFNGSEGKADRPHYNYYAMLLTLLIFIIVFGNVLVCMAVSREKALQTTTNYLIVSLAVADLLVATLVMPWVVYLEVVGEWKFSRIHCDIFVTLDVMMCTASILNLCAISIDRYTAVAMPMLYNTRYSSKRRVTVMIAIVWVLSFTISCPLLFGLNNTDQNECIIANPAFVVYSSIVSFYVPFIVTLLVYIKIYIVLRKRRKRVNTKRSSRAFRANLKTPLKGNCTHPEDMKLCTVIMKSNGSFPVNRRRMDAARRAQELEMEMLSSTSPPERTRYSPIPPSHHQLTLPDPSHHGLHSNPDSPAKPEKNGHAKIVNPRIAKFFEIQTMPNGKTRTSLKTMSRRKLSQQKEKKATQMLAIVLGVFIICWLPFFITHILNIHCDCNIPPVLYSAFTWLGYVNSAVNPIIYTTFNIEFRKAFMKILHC
T2 sequence (P61169 whole entry): as the sequence (P61169 whole entry, looked up) above

SMILES	Ki [1] [nM]	Ki [2] [nM]	Ki [3] [nM]	Ratio [4]	Ki [5] [nM]	Ki [6] [nM]
c1ccc(CNC[C@H]2CCc3ccc4[nH]ccc4c3O2)cc1	34	107	2170	24	–	–
O=c1[nH]c2ccc3c(c2[nH]1)O[C@H](CNCc1ccccc1)CC3	81	67	313	–	5.45	67.5
O=c1[nH]c2ccc3c(c2[nH]1)O[C@@H](CNCc1ccccc1)CC3	0.4	3	7	–	0.07	4.81
O=c1[nH]c2ccc3c(c2[nH]1)OC(CNCc1ccccc1)CC3 (racemic)	1	5	10	–	0.14	7.01
Oc1nc2c3c(ccc2[nH]1)CCC(CNCc1ccccc1)O3 (racemic)	–	–	–	50	–	–
O=C1Cc2c(ccc3c2O[C@@H](CNCc2ccccc2)CC3)N1	2.4	9.3	359	42	–	–
FC(F)(F)c1nc2c3c(ccc2[nH]1)CCC(CNCc1ccccc1)O3 (racemic)	–	–	–	11	–	–
FC(F)(F)c1nc2ccc3c(c2[nH]1)OC(CNCc1ccccc1)CC3 (racemic)	263	132	37	–	5.75	65.1
Oc1nc2c3c(ccc2[nH]1)CC[C@H](CNCc1ccccc1)O3	–	–	–	69	–	–
Oc1nc2c3c(ccc2[nH]1)CC[C@@H](CNCc1ccccc1)O3	–	–	–	12	–	–
